Results published in patent publication US9029336B2, “Xenobiotic related induction of gene expression” (The University of Sydney, priority 1998, dated 2015).

Biological target: T1, hPXR (Homo sapiens, UniProt O75469)
T1 sequence (O75469 1-434): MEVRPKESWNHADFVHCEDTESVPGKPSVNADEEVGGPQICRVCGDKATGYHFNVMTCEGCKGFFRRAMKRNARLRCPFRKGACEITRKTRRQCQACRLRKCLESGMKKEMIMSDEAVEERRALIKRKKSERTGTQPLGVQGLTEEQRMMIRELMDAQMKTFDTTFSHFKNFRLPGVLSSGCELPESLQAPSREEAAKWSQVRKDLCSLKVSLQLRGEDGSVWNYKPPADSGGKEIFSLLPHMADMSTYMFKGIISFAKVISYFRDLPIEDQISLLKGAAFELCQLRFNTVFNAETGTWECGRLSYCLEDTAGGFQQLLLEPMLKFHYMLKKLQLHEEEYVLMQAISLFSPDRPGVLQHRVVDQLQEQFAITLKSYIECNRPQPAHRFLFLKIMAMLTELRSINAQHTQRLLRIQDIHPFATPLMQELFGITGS
Test: CYP3A4 XREM reporter construct cotransfected with hPXR expression vector (pSG-hPXR) in HepG2 cells
Conditions: FIG. 4; for action on the XREM via the hPXR: HepG2, XREM reporter + hPXR expression vector
Text: The present inventors cotransfected a CYP3A4 5′-flanking region construct, containing the XREM and linked to a luciferase reporter, into HepG2 cells either with or without a hPXR expression construct (pSG-hPXR).
Many drugs induce the transcription of the CYP3A4 gene.

For Clc1ccccc1C(c1ccccc1)(c1ccccc1)n1ccnc1 [clotrimazole], the “action on the XREM via the hPXR” value was “act on the XREM via the hPXR” and the “induction of the XREM construct” value (HepG2 cells transfected with XREM reporter) was “induced the XREM construct in a manner analogous to that that occurs in vivo”.

For CCC1(c2ccccc2)C(=O)NC(=O)NC1=O [phenobarbitone], the “action on the XREM via the hPXR” value was “act on the XREM via the hPXR”.
